System: Hs578T complex spheroid growth, percent test/control
Test: Anticancer human tumor Hs578T cell line growth inhibition [AhR];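 further: luminescent viability signal as a proxy for spheroid growth; spheroids exposed to agents for one week after three days of growth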
Conditions: for IC50: curve of first compound; for viability, T/C: stronger effect = lower value
In short: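 Spheroids combined tumor cells with HUVEC endothelial cells and human MSCs as stroma. AhR antagonists were paired with standard or investigational drugs, each dosed in half-log steps down from near clinical Cmax, or from 10 microM where Cmax was unknown.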

Nc1ccccc1NC(=O)c1ccc(CNC(=O)OCc2cccnc2)cc1 + CC(CO)NC(=O)c1cc(-c2ccc(Cl)cc2)nn(-c2cnn(C)c2)c1=O
IC50 (second compound 0.1 µM): 1.61 µM
IC50 (second compound 0.316 µM): 1.7 µM
IC50 (second compound 1 µM): 1.66 µM
IC50 (second compound 3.16 µM): 1.72 µM
IC50 (second compound 10 µM): 1.26 µM
viability, T/C (second compound 0.1 µM, first compound 0.0316 µM): 124%
viability, T/C (second compound 0.1 µM, first compound 0.1 µM): 122%
viability, T/C (second compound 0.1 µM, first compound 0.316 µM): 108%
viability, T/C (second compound 0.1 µM, first compound 1 µM): 68.3%
viability, T/C (second compound 0.1 µM, first compound 3.16 µM): 24%
viability, T/C (second compound 0.1 µM, first compound 10 µM): 1.8%
viability, T/C (second compound 0.316 µM, first compound 0.0316 µM): 111%
viability, T/C (second compound 0.316 µM, first compound 0.1 µM): 118%
viability, T/C (second compound 0.316 µM, first compound 0.316 µM): 111%
viability, T/C (second compound 0.316 µM, first compound 1 µM): 65.8%
viability, T/C (second compound 0.316 µM, first compound 3.16 µM): 30%
viability, T/C (second compound 0.316 µM, first compound 10 µM): 1.83%
viability, T/C (second compound 1 µM, first compound 0.0316 µM): 121%
viability, T/C (second compound 1 µM, first compound 0.1 µM): 118%
viability, T/C (second compound 1 µM, first compound 0.316 µM): 112%
viability, T/C (second compound 1 µM, first compound 1 µM): 64.3%
viability, T/C (second compound 1 µM, first compound 3.16 µM): 29.6%
viability, T/C (second compound 1 µM, first compound 10 µM): 2.16%
viability, T/C (second compound 3.16 µM, first compound 0.0316 µM): 115%
viability, T/C (second compound 3.16 µM, first compound 0.1 µM): 118%
viability, T/C (second compound 3.16 µM, first compound 0.316 µM): 109%
viability, T/C (second compound 3.16 µM, first compound 1 µM): 70.9%
viability, T/C (second compound 3.16 µM, first compound 3.16 µM): 25.9%
viability, T/C (second compound 3.16 µM, first compound 10 µM): 2.04%
viability, T/C (second compound 10 µM, first compound 0.0316 µM): 111%
viability, T/C (second compound 10 µM, first compound 0.1 µM): 106%
viability, T/C (second compound 10 µM, first compound 0.316 µM): 97.2%
viability, T/C (second compound 10 µM, first compound 1 µM): 58.2%
viability, T/C (second compound 10 µM, first compound 3.16 µM): 16%
viability, T/C (second compound 10 µM, first compound 10 µM): 0.84%
